Assay results from publication PMC2896318 (Biochemistry, 2009).
Read-outs that look alike come from different tables or passages of the source.

Experiments:
[1] = molecular target: T1, Enterobacter cloacae P99 β-lactamase (Enterobacter cloacae, UniProt P05364); settings: previously determined ratio; cited from earlier work
[2] = Spontaneous hydrolysis of diaroyl phosphates in buffer; format: physicochemical; settings: values are ko × 10^6; 25 mM MOPS buffer, pH 7.5, 25 °C
[3] = molecular target: Escherichia coli W3310 TEM-2 β-lactamase (Escherichia coli, UniProt P62593, Q37K); assay: Inhibition and turnover kinetics with TEM-2 β-lactamase; format: biochemical; settings: for TEM k2 × 10^3 (deacylation rate constant): values are k2 × 10^3, pH 7.5, 25 °C
[4] = molecular target: T1, Enterobacter cloacae P99 β-lactamase; settings: for Ki: read-out: P99 K1
OXA-1 β-lactamase = OXA-1 β-lactamase (Escherichia coli, UniProt P13661); assay: Inhibition of class D β-lactamase OXA-1; format: biochemical
[5] = molecular target: T1, Enterobacter cloacae P99 β-lactamase; assay: biochemical
[6] = high inhibitor concentrations (>100 μM)
[7] = footnote b: calculated from ki = k2/Ki

T1 sequence (P05364 21-381): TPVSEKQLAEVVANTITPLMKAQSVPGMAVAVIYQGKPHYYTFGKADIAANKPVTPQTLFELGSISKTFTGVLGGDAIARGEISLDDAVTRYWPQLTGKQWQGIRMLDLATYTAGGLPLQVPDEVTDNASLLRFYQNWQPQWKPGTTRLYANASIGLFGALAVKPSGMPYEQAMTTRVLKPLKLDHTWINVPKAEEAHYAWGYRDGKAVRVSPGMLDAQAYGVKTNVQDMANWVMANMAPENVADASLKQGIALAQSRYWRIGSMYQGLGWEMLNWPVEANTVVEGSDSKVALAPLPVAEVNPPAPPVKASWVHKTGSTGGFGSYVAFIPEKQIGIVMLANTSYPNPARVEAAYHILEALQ
OXA-1 β-lactamase, sequence (P13661 26-276): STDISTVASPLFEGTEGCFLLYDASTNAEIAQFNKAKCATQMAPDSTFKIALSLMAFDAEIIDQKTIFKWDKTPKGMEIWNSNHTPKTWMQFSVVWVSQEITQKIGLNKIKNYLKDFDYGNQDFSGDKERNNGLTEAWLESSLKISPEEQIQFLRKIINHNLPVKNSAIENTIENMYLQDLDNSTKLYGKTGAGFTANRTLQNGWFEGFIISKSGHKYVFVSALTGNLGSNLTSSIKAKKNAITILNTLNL

SMILES | k3/k2 (methanol vs water partitioning of acyl-enzyme) [1] | ko × 10^6 (spontaneous hydrolysis rate constant) [2] | k3 (rearrangement of EI to more inert EI′, Scheme 5) [3, 6] | k4 (breakdown of EI′ to free enzyme, Scheme 5) [3, 6] | TEM ki (acylation rate constant) ([3]; pH 7.5, 20 mM MOPS, 25 °C, from progress curve fits) | Ki ([3]; read-out: TEM Ki, footnote a: calculated from Ki = k2/ki) | TEM k2 × 10^3 (deacylation rate constant) [3] | P99 k2 × 10^3 (deacylation rate constant) ([4]; pH 7.5) | P99 ki (acylation rate constant) ([4]; pH 7.5) | Ki [4] | TEM ki (acylation rate constant) [3, 7] | Ki (OXA-1 β-lactamase; read-out: Ki for OXA-1, class D β-lactamase) | P99 ki (acylation rate constant) [4] | Ki (OXA-1 β-lactamase) | Ki [5] | P99 k2 × 10^3 (deacylation rate constant) ([4]; values are k2 × 10^3, pH 7.5, 25 °C)
O=C(OP(=O)(O)OC(=O)c1ccccc1)c1ccccc1 [compound 5, dibenzoyl phosphate] | 23.6 | 0.78 s^−1 | (3.3 ± 0.7) × 10^−4 s^−1 | 0.00015 s⁻¹ | 0.5 ± 0.1 s⁻¹ mM⁻¹ | 76 µM | 38 ± 3 s^−1 | 9.3 ± 0.2 s^−1 | 7 ± 1 s⁻¹ mM⁻¹ | 1.33 µM | – | – | – | – | – | –
O=C(OP(=O)([O-])OC(=O)c1cc2ccccc2s1)c1cc2ccccc2s1.[Na+] [compound 11, Sodium bis[benzo(b)thiophenecarbonyl] phosphate] | – | 54.1 s^−1 | – | – | – | – | 79 ± 2 s^−1 | 211 ± 6 s^−1 | – | 0.003 µM | 53 ^b s^−1mM^−1 | 0.06 µM | 69600 ^b s^−1mM^−1 | – | – | –
O=C(OP(=O)([O-])OC(=O)c1cc2ccccc2o1)c1cc2ccccc2o1.[Na+] [compound 12, Sodium bis[2-benzo(b)furancarbonyl] phosphate] | – | 285 s^−1 | – | – | – | – | 74 ± 1 s^−1 | – | – | – | 1.8 ^b s^−1mM^−1 | – | – | 14.2 µM | 1.3 ± 0.3 µM | 354 ± 26 s^−1
